{"source": "patent US20260293937A1", "about": "“SHRIMP FEED AND METHODS OF USE THEREOF” (Organicin Scientific, Inc., priority 2023, published 2026)", "tested_on": "Vibrio parahaemolyticus (strain 13-028A/3)", "assay": "AHPND immersion challenge, feed-and-survival assay in shrimp", "assay_type": "in vivo, Penaeus (Litopenaeus) vannamei", "conditions": "for Group Survival: positive control 35%; for % Survival: per tank; for Survivors: per tank of 20 shrimp", "procedure": "This Example describes the materials, methods, and results of a feed-and-survival assay in shrimp treated with a composition of the disclosure, including the bacteriocin Nisin and shrimp feed.\nSpecific Pathogen Free (SPF) P. vannamei at an average weight of 1 g to 2 g, were obtained from a commercial shrimp producer and reared. A total of 300 shrimp were transferred into 15 90 L glass aquaria, each aquarium stocked with 20 shrimp.\nShrimp feed diets was prepared at X, 10X, and 100X (0.84 mg/g, 8.4 mg/g, and 84 mg/g Nisin, respectively) estimated concentrations of the bacteriocin Nisin. The bacteriocin additive was combined with a 40% protein commercial shrimp premix (Rangen Inc., Buhl, Idaho), carboxymethyl cellulose at a 3% inclusion rate, and up to 40% w/v water. Exemplary components of a typical 35% protein shrimp diet were wheat flour (35%), soybean meal (20%) and fishmeal (25%). The mixture was then cold-extruded through a meat grinder to produce a 3 mm diameter size pellet strand. The resulting feed strands were dried overnight at 40° C. and broken into appropriately-sized pellets. A total of 100 g of each diet was use for this study. In all three experimental groups a minimum of 9.324 g of Nisin was used to produce the respective feed conditions.\nThe negative and positive control tanks were fed Rangen's commercially pelleted shrimp diet without additive.\nThe commercially prepared shrimp diet from juvenile Penaeus (Litopenaeus) vannameia was prepared with a bacteriocin additive at three concentrations (0.84 mg/g, 8.4 mg/g, and 84 mg/g Nisin). Experimental shrimp were orally exposed for […] Vibrio parahaemolyticus, an agent which causes Acute Hepatopancreatic Necrosis Disease (AHPND) to determine if the feed additives (provided during and after exposure) would affect survival when compared to the group that was fed an untreated diet.\nAll tanks were covered to reduce the risk of mortality due to shrimp jumping out. Each group of tanks was outfitted with its own equipment (e.g., nets and buckets). Each tank contained sufficient aeration and was outfitted with a pre-conditioned biological filter. Water quality tests to characterize temperature, nitrite and total ammonia were performed on tanks weekly.\nNine tanks (three per Nisin concentration) were used to house shrimp that were fed the bacteriocin-containing diet, while three tanks were used to house shrimp fed the control diet without additive. In both cases, the shrimp were fed their respective diet, followed by the AHPND challenge. The challenge was provided on 7 days at 5% of body weight per tank. Three additional tanks were used as a negative control for environmental conditions and were used to house shrimp fed the control diet and not challenged with AHPND. Additionally, the negative control tanks were be fed before the AHPND challenged tanks to reduce the risk of cross contamination.\nEach tank scheduled for the AHPND challenge was subjected to an immersion challenge. Tryptic Soy Broth +2% (TSB+) sodium chloride was inoculated with a consistently virulent strain of Vibrio parahaemolyticus (strain 13-028A/3), incubated for 18 hours, and added directly into each challenge tank. The bacterial suspension was added into each tank to achieve the bacterial density measured by optical density absorbance (OD600 nm) at approximately […].\nTwo animals were preserved in Davidson's AFA fixative prior to the start of the study to document the SPF health status of the population by histology.\nAll tanks were checked twice a day for dead or moribund animals. During the study, any mortalities were removed from the tank and frozen at −20° C. Up to two moribund animals from each diet group, including the positive control tanks, were preserved in Davidson's AFA fixative and processed for routine histology to confirm an AHPND infection (up to 12 P. vannamei processed for histology during the challenge period). […]", "note": "“And” between values parts separate entries of the source, which are not always exact repeats. Equal values may be shown once. No end group written: not given here.", "data": [{"substance": "Nisin: Nisin (Immucell; 99% pure) in Example 1; bacteriocin Nisin in shrimp feed at 0.84, 8.4 and 84 mg/g in Example 2 (ITSISLCTPGCKTGALMGCNMKTATCHCSIHVSK; cysteine pairing not given here; also: lantibiotic, modifications not placed; UniProt P13068 24-57, looked up)", "values": [{"measurement": "cumulative survival vs positive control group", "setting": "0.84 mg/g Nisin in feed", "value": "statistically significant difference in cumulative survival"}, {"measurement": "deaths pre-challenge", "setting": "0.84 mg/g Nisin in feed", "value": 4}, {"measurement": "increase in relative survival of AHPND-challenged shrimp", "setting": "0.84 mg/g Nisin in feed vs positive controls, statistically significant", "value": 265, "unit": "%"}, {"measurement": "survival of AHPND-challenged shrimp", "setting": "0.84 mg/g Nisin in feed, pre-challenge deaths excluded, positive controls 35%", "value": 100, "unit": "%"}, {"measurement": "survival rate vs positive controls", "setting": "8.4 mg/g Nisin in feed", "value": "significantly higher than the positive controls"}, {"measurement": "deaths", "setting": "84 mg/g Nisin in feed", "value": "not a single death"}, {"measurement": "survival vs positive controls", "setting": "84 mg/g Nisin in feed", "value": "statistically significant as compared to the positive controls"}, {"measurement": "Mortalities by Day", "setting": "1X (0.84 mg/g Nisin in feed), day 0, per tank", "value": 0}, {"measurement": "Mortalities by Day", "setting": "1X (0.84 mg/g Nisin in feed), day 2, per tank", "value": 0}, {"measurement": "Mortalities by Day", "setting": "1X (0.84 mg/g Nisin in feed), day 3, per tank", "value": 0}, {"measurement": "Mortalities by Day", "setting": "1X (0.84 mg/g Nisin in feed), day 4, per tank", "value": 0}, {"measurement": "Mortalities by Day", "setting": "1X (0.84 mg/g Nisin in feed), day 5, per tank", "value": 0}, {"measurement": "Mortalities by Day", "setting": "1X (0.84 mg/g Nisin in feed), day 6, per tank", "value": 0}, {"measurement": "Mortalities by Day", "setting": "1X (0.84 mg/g Nisin in feed), day 7, per tank", "value": 0}, {"measurement": "Mortalities by Day", "setting": "1X (0.84 mg/g Nisin in feed), day 8, per tank", "value": 0}, {"measurement": "Mortalities by Day", "setting": "1X (0.84 mg/g Nisin in feed), day 9, per tank", "value": 0}, {"measurement": "Mortalities by Day", "setting": "1X (0.84 mg/g Nisin in feed), day 10, per tank", "value": 0}, {"measurement": "Mortalities by Day", "setting": "1X (0.84 mg/g Nisin in feed), day 11, per tank", "value": 0}, {"measurement": "Mortalities by Day", "setting": "1X (0.84 mg/g Nisin in feed), day 12, per tank", "value": 0}, {"measurement": "Mortalities by Day", "setting": "1X (0.84 mg/g Nisin in feed), day 13, per tank", "value": 0}, {"measurement": "Mortalities by Day", "setting": "1X (0.84 mg/g Nisin in feed), day 14, per tank", "value": 0}, {"measurement": "Mortalities by Day", "setting": "1X (0.84 mg/g Nisin in feed), day 15, per tank", "value": 0}, {"measurement": "Mortalities by Day", "setting": "1X (0.84 mg/g Nisin in feed), day 16, per tank", "value": 0}, {"measurement": "Group Survival", "setting": "1X (0.84 mg/g Nisin in feed), overall", "value": 93, "unit": "%"}, {"measurement": "% Survival", "setting": "1X (0.84 mg/g Nisin in feed)", "value": "95% and 90%"}, {"measurement": "Survivors", "setting": "1X (0.84 mg/g Nisin in feed)", "value": "19 and 18"}, {"measurement": "Mortalities by Day", "setting": "10X (8.4 mg/g Nisin in feed), day 0, per tank", "value": 0}, {"measurement": "Mortalities by Day", "setting": "10X (8.4 mg/g Nisin in feed), day 1, per tank", "value": 0}, {"measurement": "Mortalities by Day", "setting": "10X (8.4 mg/g Nisin in feed), day 2, per tank", "value": 0}, {"measurement": "Mortalities by Day", "setting": "10X (8.4 mg/g Nisin in feed), day 3, per tank", "value": 0}, {"measurement": "Mortalities by Day", "setting": "10X (8.4 mg/g Nisin in feed), day 4, per tank", "value": 0}, {"measurement": "Mortalities by Day", "setting": "10X (8.4 mg/g Nisin in feed), day 5, per tank", "value": 0}, {"measurement": "Mortalities by Day", "setting": "10X (8.4 mg/g Nisin in feed), day 6, per tank", "value": 0}, {"measurement": "Mortalities by Day", "setting": "10X (8.4 mg/g Nisin in feed), day 7, per tank", "value": 0}, {"measurement": "Mortalities by Day", "setting": "10X (8.4 mg/g Nisin in feed), day 13, per tank", "value": 0}, {"measurement": "Mortalities by Day", "setting": "10X (8.4 mg/g Nisin in feed), day 14, per tank", "value": 0}, {"measurement": "Mortalities by Day", "setting": "10X (8.4 mg/g Nisin in feed), day 15, per tank", "value": 0}, {"measurement": "Mortalities by Day", "setting": "10X (8.4 mg/g Nisin in feed), day 16, per tank", "value": 0}, {"measurement": "% Survival", "setting": "10X (8.4 mg/g Nisin in feed)", "value": "85% and 75% and 45%"}, {"measurement": "Survivors", "setting": "10X (8.4 mg/g Nisin in feed)", "value": "17 and 15 and 9"}, {"measurement": "Group Survival", "setting": "10X (8.4 mg/g Nisin in feed)", "value": 68, "unit": "%"}, {"measurement": "Mortalities by Day", "setting": "100X (84 mg/g Nisin in feed), day 0, per tank", "value": 0}, {"measurement": "Mortalities by Day", "setting": "100X (84 mg/g Nisin in feed), day 1, per tank", "value": 0}, {"measurement": "Mortalities by Day", "setting": "100X (84 mg/g Nisin in feed), day 2, per tank", "value": 0}, {"measurement": "Mortalities by Day", "setting": "100X (84 mg/g Nisin in feed), day 3, per tank", "value": 0}, {"measurement": "Mortalities by Day", "setting": "100X (84 mg/g Nisin in feed), day 4, per tank", "value": 0}, {"measurement": "Mortalities by Day", "setting": "100X (84 mg/g Nisin in feed), day 5, per tank", "value": 0}, {"measurement": "Mortalities by Day", "setting": "100X (84 mg/g Nisin in feed), day 6, per tank", "value": 0}, {"measurement": "Mortalities by Day", "setting": "100X (84 mg/g Nisin in feed), day 7, per tank", "value": 0}, {"measurement": "Mortalities by Day", "setting": "100X (84 mg/g Nisin in feed), day 8, per tank", "value": 0}, {"measurement": "Mortalities by Day", "setting": "100X (84 mg/g Nisin in feed), day 9, per tank", "value": 0}, {"measurement": "Mortalities by Day", "setting": "100X (84 mg/g Nisin in feed), day 10, per tank", "value": 0}, {"measurement": "Mortalities by Day", "setting": "100X (84 mg/g Nisin in feed), day 11, per tank", "value": 0}, {"measurement": "Mortalities by Day", "setting": "100X (84 mg/g Nisin in feed), day 12, per tank", "value": 0}, {"measurement": "Mortalities by Day", "setting": "100X (84 mg/g Nisin in feed), day 13, per tank", "value": 0}, {"measurement": "Mortalities by Day", "setting": "100X (84 mg/g Nisin in feed), day 14, per tank", "value": 0}, {"measurement": "Mortalities by Day", "setting": "100X (84 mg/g Nisin in feed), day 15, per tank", "value": 0}, {"measurement": "Mortalities by Day", "setting": "100X (84 mg/g Nisin in feed), day 16, per tank", "value": 0}, {"measurement": "% Survival", "setting": "100X (84 mg/g Nisin in feed)", "value": 100, "unit": "%"}, {"measurement": "Survivors", "setting": "100X (84 mg/g Nisin in feed)", "value": 20}, {"measurement": "Group Survival", "setting": "100X (84 mg/g Nisin in feed)", "value": 100, "unit": "%"}, {"measurement": "shrimp survival", "setting": "Nisin and shrimp feed, dose as low as 0.84 mg/g", "value": "significant increase in shrimp survival"}]}]}
